Common to all, as to experiment: AUC of viability dose-response curve (% viability x log10 dose units); higher = less sensitive
Settings in all cases: 48 h

For assay [1], the system named is NOMO1. In short, it runs like this:
(§1)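 Medium-adapted leukemia cells in 1536-well plates, at 500 or 1000 cells/well, were incubated for 48 h at 37°C with library compounds in DMSO at 11 threefold doses from 47 μM to 0.79 nM. CellTiter-Glo One luminescence normalised per plate to DMSO and cell-free wells was fitted with a four-parameter log-logistic model over log10 doses. Area under the curve was integrated from this fit by trapezoidal rule, with curves beyond full viability scaled and failed quality-control curves removed.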

The test system of assay [2] is P12-Ichikawa. In short, it runs like this:
as §1

Assay [3] relates to SEM cells. In short, it runs like this:
as §1

Setting [4] is: RPMI 5 mM glucose + 10% dialyzed FBS.

From the supplement of paper PMC11451515 come the findings set out here.

`CC(C)(C)[C@]1(O)C[C@@H]2OC(=O)C[C@@]23C(=O)O[C@@H]2OC(=O)[C@H](O)C213` (some centres undefined): the “AUC of viability dose-response curve” value in assay [1] (HPLM + 10% dialyzed FBS) was 452; in assay [1] (RPMI 5 mM glucose + 10% FBS), 436; in assay [1] (setting [4]) it was 452; in assay [2] (HPLM + 10% dialyzed FBS) it was 447; in assay [2] (RPMI 5 mM glucose + 10% FBS), 458; in assay [2] (setting [4]) it was 452. Also, the “AUC of viability dose-response curve” value is 471 in assay [3] (HPLM + 10% dialyzed FBS), 444 in assay [3] (RPMI 5 mM glucose + 10% FBS) and 436 in assay [3] (setting [4]).
